Measurements: US11473089B2, “Aptamer for ADAMTS5 and use for aptamer for ADAMTS5” (RIBOMIC INC., priority 2017, dated 2022)
Read-outs that look alike come from different tables or passages of the source.

Tests used:
ADAMTS5 [1] = biological target: T1, ADAMTS5 (Homo sapiens, UniProt Q9UNA0); assay: ADAMTS5 enzyme inhibition, aggrecan G1-IGD-G2 cleavage, SDS-PAGE detection (evaluation method 1); type: biochemical; conditions: for % inhibitory activity: Table 3, final concentration of the nucleic acid 30 nM; for Inhibitory activity against ADAMTS5: Table 4; for inhibition rate % (10 nM aptamer): Table 5; for inhibitory activity against ADAMTS5 (in words, compared with parent sequence): enzyme assay as in Example 1
T1 construct: purchased R&D systems
T1 sequence (Q9UNA0 262-930): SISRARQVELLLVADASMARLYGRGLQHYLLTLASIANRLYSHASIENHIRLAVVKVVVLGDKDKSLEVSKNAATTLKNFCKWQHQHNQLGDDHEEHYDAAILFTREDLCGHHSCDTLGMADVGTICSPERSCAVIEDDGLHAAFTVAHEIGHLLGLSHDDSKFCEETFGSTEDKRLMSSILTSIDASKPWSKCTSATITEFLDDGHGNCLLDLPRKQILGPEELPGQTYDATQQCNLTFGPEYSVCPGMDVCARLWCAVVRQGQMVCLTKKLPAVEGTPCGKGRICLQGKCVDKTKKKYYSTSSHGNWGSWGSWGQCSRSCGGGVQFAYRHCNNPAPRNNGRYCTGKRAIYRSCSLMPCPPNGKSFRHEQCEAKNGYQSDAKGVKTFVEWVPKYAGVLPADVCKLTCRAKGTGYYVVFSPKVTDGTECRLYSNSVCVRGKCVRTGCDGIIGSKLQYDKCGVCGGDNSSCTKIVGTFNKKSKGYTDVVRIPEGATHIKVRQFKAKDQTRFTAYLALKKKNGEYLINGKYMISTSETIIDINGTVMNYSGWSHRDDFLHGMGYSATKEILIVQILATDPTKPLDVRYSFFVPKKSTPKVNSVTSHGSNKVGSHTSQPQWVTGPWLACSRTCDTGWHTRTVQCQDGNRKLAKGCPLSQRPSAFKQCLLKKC
Description: Whether an aptamer having the nucleotide sequence shown in SEQ ID NO: 1 inhibits the enzyme activity of ADAMTS5 was evaluated by the following method. As a substrate of ADAMTS5, the G1-IGD-G2 domain of aggrecan (manufactured by R&D systems) was used. ADAMTS5 specifically cleaves in between the 392nd glutamic acid and the 393rd alanine in the G1-IGD-G2 domain and produces two fragments. These fragments have faster electrophoretic mobility than uncleaved G1-IGD-G2. Thus, the enzyme activity of ADAMTS5 can be measured by quantifying the band intensity of G1-IGD-G2 by SDS-PAGE electrophoresis. The assay was performed in a solution A buffer with a reaction mixture volume of 10 μL. First, a mixture (10 μL) of a nucleic acid and ADAMTS5 was prepared and incubated at 25° C. for 15 min. To a substrate solution (5 μL) diluted with solution A was added a mixture (5 μL) of the nucleic acid and ADAMTS5 to start the enzyme reaction. The final concentration of ADAMTS5 in the reaction solution was 5 nM, and the final substrate concentration was 50 μg/mL. The reaction solution was incubated at 37° C. for 2 hr, 2 μL of solution D was added, and the mixture was heated at 95° C. for 2 min to stop the enzyme reaction of ADAMTS5. Solution D contains 0.25 M tris (pH 6.8), 10% SDS, 50% glycerol, 0.25% bromo phenolblue, and 20% 2-mercaptoethanol. The heat-treated reaction solution was electrophoresed by 7.5% SDS-PAGE and stained with SYPRO Orange (manufactured by Sigma-Aldrich). The staining was performed according to the manual of Sigma-Aldrich and detected using STORM840 manufactured by GE Healthcare. For analytical curves, uncleaved substrates 1000 ng, 400 ng, 160 ng, 64 ng, 25.6 ng, 10.24 ng, and 4.1 ng were electrophoresed, and staining and detection were performed in the same manner. The amount of uncleaved substrate in each reaction solution was quantified from the band intensity and the standard curve. The substrate cleavage efficiency of ADAMTS5 under these reaction conditions was 80-100%. The inhibition rate of the test substance was calculated using the following equation. inhibition rate (%)=(Sapt−SE)/(S0−SE)×100 wherein Sapt is the amount of an uncleaved substrate with the addition of a test substance, SE is the residual amount of an uncleaved substrate with the addition of ADAMTS5, and S0 is the residual amount of an uncleaved substrate without the addition of ADAMTS5.
The concentration of an inhibitor necessary for inhibiting 50% of the enzyme activity (IC50) was determined. IC50 is a mean of four measurements.

ADAMTS5 [2] = biological target: T1, ADAMTS5; assay: binding activity to ADAMTS5 by surface plasmon resonance (Biacore T100); conditions: Table 10
Description: The binding activity of aptamers having the nucleotide sequences shown in SEQ ID NOs: 1 and 2 to ADAMTS5 was evaluated by the surface plasmon resonance method. Biacore T100 manufactured by GE Healthcare was used for the measurement. The SA chip was used as the sensor chip, which had streptavidin immobilized thereon. About 800 RU of a 16-nucleotide Poly dT with biotin at the 5′-terminal was bound on the chip. […] ADAMTS5 for analyte was prepared at 0.1 μM, and injected at a flow rate of 30 μL/min for 60 sec. As the running buffer, solution C was used. The solution C is a mixed solution of 300 mM sodium chloride, 5.4 mM potassium chloride, 1.8 mM calcium chloride, 0.8 mM magnesium chloride, 20 mM tris (pH 7.6), and 0.05% Tween20.
SEQ ID NO: 2 has a sequence with one base deletion from the continuous 4 G bases in the consensus sequence, and it was shown from the measurement results of the binding activity that the continuous 4 G bases in the consensus sequence are important for the activity of aptamers. Sensorgram showing the binding of an aptamer having the nucleotide sequence shown in SEQ ID NO: 1 to ADAMTS5 is presented in FIG. 2. In Table 1, “++” indicates those with the proportion of ADAMTS5 binding amount (RU value) to the amount of aptamer immobilized on the SA chip (RU value) of not less than 40%, “+” indicates those with the proportion of not less than 10% and less than 40%, and “−” indicates those with the proportion of less than 10%.
The binding activity and enzyme inhibitory activity of aptamers having nucleotide sequences shown in SEQ ID NOs: 16-25 to ADAMTS5 were measured. The binding activity was evaluated by the surface plasmon resonance method. For the measurement, a method similar to that in Example 1 was used. The enzyme inhibitory activity was measured by a method similar to that in Example 1. […] The negative control nucleic acid refers to the nucleic acid pool used in the first round of the SELEX method. The “++” indicates those with the proportion of ADAMTS5 binding amount (RU value) to the amount of aptamer immobilized on the SA chip (RU value) of not less than 40%, and “+” indicates those with the proportion of less than 40%. […] “n.d.” means not determined.
The binding activity of the nucleic acids shown in SEQ ID NOs: 30-45 to ADAMTS5 was measured. The binding activity was evaluated by the surface plasmon resonance method. In the Table, “++” indicates those with the proportion of ADAMTS5 binding amount (RU value) to the amount of aptamer immobilized on the SA chip (RU value) of not less than 40%, “+” indicates those with the proportion of not less than 10% and less than 40%, and “−” indicates those with the proportion of less than 10%.

[3] = Table 9, electrophoresis detection, 10 nM nucleic acid

## 3 (GGAUUGGGGCCUCCACAGCUGCUCAGCUUGGACUAAACCAAUCC; 2'-fluoro at CU, RNA at AG, backbone not given here) [compound 3]
ADAMTS5 [1]
  % inhibitory activity: 36.4%
ADAMTS5 [1]; nucleic acid concentration 10 nM
  Inhibitory activity against ADAMTS5: 33.9%
ADAMTS5 [1]; nucleic acid concentration 30 nM
  Inhibitory activity against ADAMTS5: 58.4%

## 4 (GGCUUGGGGCCUCCACAGCUGCUCAGCUUGGACUAAACCAAGCC; 2'-fluoro at CU, RNA at AG, backbone not given here) [compound 4]
ADAMTS5 [1]
  % inhibitory activity: 23%

## 5 (GGCUUGGGGCCUCCACAGCGCUCGCUUGGACUAAACCAAGCC; 2'-fluoro at CU, RNA at AG, backbone not given here) [compound 5]
ADAMTS5 [1]
  % inhibitory activity: 27%

## 6 (GGCUUGGGGCCUCCACAGCUGUCAGCUUGGACUAAACCAAGCC; 2'-fluoro at CU, RNA at AG, backbone not given here) [compound 6]
ADAMTS5 [1]
  % inhibitory activity: 33.7%

## 7 (GGCUUGGGGCCUCCACAGCUGCUCAGCUUGGACUAACCAAGCC; 2'-fluoro at CU, RNA at AG, backbone not given here) [compound 7]
ADAMTS5 [1]
  % inhibitory activity: −2.3%

## 8 (GGCUUGGGGCCUCACAGCUGCUCAGCUUGACUAAACCAAGCC; 2'-fluoro at CU, RNA at AG, backbone not given here) [compound 8]
ADAMTS5 [1]
  % inhibitory activity: −8.6%

## 9 (GGAUUGGGGCCUCCACAGCGUCGCUUGGACUAAACCAAUCC; 2'-fluoro at CU, RNA at AG, backbone not given here) [compound 9]
ADAMTS5 [1]
  % inhibitory activity: 5.9%

## 10 (AUUGGGGCCUCCACAGCUGCUCAGCUUGGACUAAACCAAU; 2'-F and 2'-O-methyl modifications at positions not given here) [compound 10]
ADAMTS5 [1]; 10 nM aptamer
  inhibition rate % (10 nM aptamer): 65%
ADAMTS5 [1]; Table 6, 10 nM aptamer
  inhibitory activity (%) evaluation method 1: 65%

## 11 (AUUGGGGCCUCCACAGCGCUCGCUUGGACUAAACCAAU; 2'-F and 2'-O-methyl modifications at positions not given here) [compound 11]
ADAMTS5 [1]; 10 nM aptamer
  inhibition rate % (10 nM aptamer): 59.8%
ADAMTS5 [1]; Table 6, 10 nM aptamer
  inhibitory activity (%) evaluation method 1: 59.8%

## 12 (UUGGGGCCUCCACAGCGCUCGCUUGGACUAAACCAA; chemically modified, pattern not given here) [compound 12]
ADAMTS5 [1]; 10 nM aptamer
  inhibition rate % (10 nM aptamer): 71.1%

## 13 (GCUGGGGCCUCCACAGCGCUCGCUUGGACUAAACCAGC; chemically modified, pattern not given here) [compound 13]
ADAMTS5 [1]; Table 6, 10 nM aptamer
  inhibitory activity (%) evaluation method 1: 58.4%
ADAMTS5 [1]
  inhibitory activity against ADAMTS5 (in words, compared with parent sequence): does not affect the inhibitory activity

## 14 (AUUGGGGCCUCCACAGCUUCGGCUUGGACUAAACCAAU; listed as RNA, chemistry not given here) [compound 14]
ADAMTS5 [1]; Table 6, 10 nM aptamer
  inhibitory activity (%) evaluation method 1: 60.5%
ADAMTS5 [1]
  inhibitory activity against ADAMTS5 (in words, compared with parent sequence): does not affect the inhibitory activity

## 26 (GGGUAUAGGGGCCUCCACAGCGUAAGCUUGGACUUAAACCAUACCC; listed as RNA, chemistry not given here) [compound 26]
ADAMTS5 [1]; Table 8, 30 nM aptamer
  inhibitory activity % 30 nM aptamer: 63.5%

## 27 (UAUAGGGGCCUCCACAGCGUAAGCUUGGACUUAAACCAUA; aptamer; 2'-O-methyl modifications copied from another aptamer, pattern not given here, some with 3' inverted dT) [compound 27]
ADAMTS5 [1]; Table 8, read-out: IC50
  IC50: 5.9 nM

## 28 (CGUAGGGGCCUCCACAGCGUAAGCUUGGACUUAAACCACG; aptamer; 2'-O-methyl modifications copied from another aptamer, pattern not given here, some with 3' inverted dT) [compound 28]
ADAMTS5 [1]; Table 8, read-out: IC50
  IC50: 3.4 nM
ADAMTS5 [1]; [3]
  inhibitory activity (%) evaluation method 1: 81%

## 29 (CGUAGGGGCCUCCACAGCAUUCGCUUGGACACAAACCACG; aptamer; 2'-O-methyl modifications copied from another aptamer, pattern not given here, some with 3' inverted dT) [compound 29]
ADAMTS5 [1]; Table 8, 10 nM aptamer
  inhibitory activity % 10 nM aptamer: 84%
ADAMTS5 [1]; [3]
  inhibitory activity (%) evaluation method 1: 84%

## 30 (GGGUAUUGGGGCCUCCACAAUAGAUAAAUGGACUAAACCAACUCGA; 2'-fluoro at CU, RNA at AG, backbone not given here) [compound 30]
ADAMTS5 [2]
  binding activity: ++ (proportion of ADAMTS5 binding amount (RU value) to the amount of aptamer immobilized on the SA chip (RU value) of not less than 40%)

## 31 (GGGUAUUGGGGCCUCCACAGUUGAAGCUUGGACUAAACCAAUCUCGA; aptamer; 2'-fluoro at CU, RNA at AG, backbone not given here) [compound 31]
ADAMTS5 [2]
  binding activity: ++ (proportion of ADAMTS5 binding amount (RU value) to the amount of aptamer immobilized on the SA chip (RU value) of not less than 40%)

## Cn1nc(C(F)(F)F)c(/C=C2\SC(=S)NC2=O)c1SCc1ccc(Cl)cc1 [reference compound]
ADAMTS5 [1]; positive control, read-out: IC50 value
  IC50: 90500 nM
